The values below come from ChEMBL document CHEMBL4014262, “Phloroglucinol Derivatives with Protein Tyrosine Phosphatase 1B Inhibitory Activities from Eugenia jambolana Seeds” (J Nat Prod, 2017).

For this assay, the target named is T1, Tyrosine-protein phosphatase non-receptor type 1 (Homo sapiens, UniProt P18031).
T1 sequence (P18031 whole entry): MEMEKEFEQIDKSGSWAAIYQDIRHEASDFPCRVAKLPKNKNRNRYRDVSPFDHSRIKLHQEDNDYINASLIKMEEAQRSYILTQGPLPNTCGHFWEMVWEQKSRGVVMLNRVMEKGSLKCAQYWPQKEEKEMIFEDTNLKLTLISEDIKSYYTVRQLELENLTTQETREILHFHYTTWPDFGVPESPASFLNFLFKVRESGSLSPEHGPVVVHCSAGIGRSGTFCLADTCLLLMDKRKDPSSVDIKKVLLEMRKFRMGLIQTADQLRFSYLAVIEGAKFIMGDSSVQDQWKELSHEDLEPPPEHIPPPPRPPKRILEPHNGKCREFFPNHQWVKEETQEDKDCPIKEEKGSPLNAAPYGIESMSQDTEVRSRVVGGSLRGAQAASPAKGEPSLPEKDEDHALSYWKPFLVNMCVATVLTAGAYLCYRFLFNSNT
Briefly: Inhibition of GST-tagged PTP1B (1 to 321 residues) (unknown origin) using p-NPP as substrate preincubated for 10 mins followed by substrate addition measured after 30 mins.
`CCCC/C=C\CCCCCCCCCC1(O)CC(=O)c2c(O)c(C)c(O)c(C)c2O1` (stereo unspecified) came in with an IC50 of 1800 nM. In other words, the single-digit micromolar range. With `CC/C=C\C/C=C\C/C=C\CCCCCCCC1(O)CC(=O)c2c(O)c(C)c(O)c(C)c2O1` (stereo unspecified), 1600 nM corresponded to half-maximal inhibition (IC50). Then `CC/C=C\C/C=C\C/C=C\CCCCCCCC1(O)CC(=O)c2c(O)cc(O)cc2O1` (stereo unspecified), with 450 nM; and `CCCCCCCCCCCCCCCC1(O)CC(=O)c2c(O)cc(O)cc2O1` (stereo unspecified), with 2000 nM; and `CCCCC/C=C\C/C=C\CCCCCCCC1(O)CC(=O)c2c(O)cc(O)cc2O1` (stereo unspecified), with 420 nM. Then `CCCCC/C=C\C/C=C\CCCCCCCC1(O)CC(=O)c2c(O)c(C)c(O)c(C)c2O1` (stereo unspecified), with 2700 nM.

As a reminder, the IC50 is the concentration needed to halve the response being measured.
